In general, logP refers to the decadic logarithm of the partition coefficient of the neutral form, usually between octanol and water. Read a low logP as a more hydrophilic compound.

Consider `COc1cc(-n2c(=O)cc(C)n2C)nc(C)n1`, for which the logP came out at 0.7.
The compound `CC(=O)OCC1=C(C(=O)O)N2C(=O)C(NC(=O)C(O)c3ccccc3)C2SC1` (configuration not stated) showed a logP of -0.44.
The compound `CNP(=O)(OC)Oc1cc(Cl)c(Cl)cc1Cl` (configuration not stated) yielded a logP of 3.06.
The compound `CSCN1C(=O)CN=C(c2ccccc2)c2cc(N)ccc21` showed a log partition coefficient (logP) of 1.92.
Then `O=C(NC(CO)C(O)c1ccc([N+](=O)[O-])cc1)c1ccccc1` (configuration not stated), with 1.63; and `FC(F)(F)c1nc2c(Br)c(Br)c(Br)cc2[nH]1`, with 4.08; and `COc1cc(OC)cc(OC(=O)CNC(=O)c2ccccc2)c1`, with 2.69.
As to `CCOC(=O)CCCCn1nnc2ccccc21`, the logP was found to be 2.2.
The value for `O=S(=O)(Nc1ccc(C(F)(F)F)cc1)C(F)(F)F` was 4.47.
Take `CCN(CC)CCCNC(=O)c1ccccc1OC`: the lipophilicity (logP) was 1.76.
Compound `CC1(C)N=C(N)N=C(N)N1c1cccc(C#N)c1` had a logP of -0.24.
In the case of `O=NN(CCCl)C(=O)NC1CCC(=O)NC1=O` (configuration not stated), the logP is 0.37.
The value for `O=C(O)COc1cccc(S(F)(F)(F)(F)F)c1` was 2.78.
As for `C[N+](C)(C)Cc1cccnc1.[Br-]`, the log partition coefficient (logP) is -3.5.
The value for `O=c1ccnc2ccccn12` was 0.2; that for `N=C(N)NC(=O)Nc1ccc([N+](=O)[O-])c(Cl)c1` was 1.79; that for `CCCS(=O)(=O)c1cc(OC)c(OC)c(OC)c1` was 1.56.
The compound `CNC(=O)ON=Cc1ccc(Cl)c(Cl)c1` returned a log partition coefficient (logP) of 2.89.
In turn, `CC1=Nc2c(Br)cc(Cl)cc2S(=O)(=O)N1` had a logP of 1.65.
In the case of `CCCNP(=O)(OC)SC` (configuration not stated), the log partition coefficient (logP) amounted to 0.65.
`COc1cc(C)nn1-c1ccncn1` returned a logP of 0.5.
In the case of `NC(=O)c1cccc(OC(=O)CNC(=O)c2ccccc2)c1`, the lipophilicity (logP) was 1.2.
The value for `COc1ccccc1C(=O)N1CCN(C)CC1` was 0.29.
Turning to `O=[N+]([O-])c1nccn1CCS(=O)(=O)c1ccccc1`, the logP turned out to be 0.52.
The compound `CCOC(=O)CN(C(=O)CCl)c1ccccc1Cl` displayed a logP of 2.3.
In the case of `O=[N+]([O-])c1ccc(C=Cc2nccc(Cl)n2)o1`, the log partition coefficient (logP) was determined as 1.31.
Then `COc1cc(Cc2cnc(N)nc2N)cc(OCc2ccccc2)c1OC`, with 2.37.
The value for `CCCCNP(=O)(OC)SC` (configuration not stated) was 0.94; that for `COc1cc(OC)c(OC)cc1CC(C)N` (configuration not stated) was 1.74.
Turning to `O=C1CCC(=O)N1c1cccc(Cl)c1`, the lipophilicity (logP) is 0.98.
`COc1cccc(N2C(=O)CCC2=O)c1` displayed a log partition coefficient (logP) of 0.18.
The value for `Cc1ccccc1N1C(=O)CCC1=O` was 0.29.
The value for `CCCc1nnc(N)o1` was 0.23.
`CCCCCNc1ccc(C(=O)OCCN(C)C)cc1`: the logP was determined as 4.14.
`CSC(C)=NOC(=O)N(C)SN(C)C(=O)c1cccc(Cl)c1` came in with a logP of 2.7.
For the compound `CC(=O)c1ccc(N2C(N)=NC(N)=NC2(C)C)cc1`, the logP is -0.04.
On to `CC(=O)Nc1ccc(O)c(C)c1`, for which the logP amounted to 0.79.
Compound `CNc1cc(Cc2cnc(N)nc2N)cc(NC)c1` returned a logP of 0.44.
`Nc1ccccc1C(c1ccc(O)cc1)c1ccc(O)cc1` showed a logP of 3.16.
As to `O=C(O)COc1cccc(OC(F)(F)F)c1`, the logP was 2.48.
Then `O=C(NCC(O)c1ccc([N+](=O)[O-])cc1)C(F)(F)F` (configuration not stated), with 1.46.
Turning to `OCC1C(Cl)C(Cl)C(Cl)C(Cl)C1Cl` (configuration not stated), the lipophilicity (logP) was 2.94.
`CC(=O)CNc1ccccc1C(N)=O` showed a logP of 0.61.
The compound `CCCNP(=O)(OC)Oc1cc(Cl)c(Cl)cc1Cl` (configuration not stated) registered a lipophilicity (logP) of 3.7.
Take `CCCC(=O)N(C)SN(C)C(=O)ON=C(C)SC`: the logP was found to be 2.2.
Compound `O=[N+]([O-])c1cnc(N=C2SCCN2CCO)s1` registered a lipophilicity (logP) of 1.28.
For the compound `COc1cc(Cc2cnc(N)nc2N)cc(OC)c1C(N)=O`, the logP is -0.85.
On to `CCCCOn1c(=O)[nH]c(C)c(Br)c1=O`, for which the logP is 1.24.
Then `O=[N+]([O-])c1nccn1CC(O)COc1ccccc1` (configuration not stated), with 1.43.
Compound `COc1cc(OC)nc(-n2[nH]c(=O)cc2C)n1` showed a lipophilicity (logP) of 1.16.
Regarding `O=NN1CCC(=O)CC1`, the logP was -0.47.
Then `CN(C)c1ccc2c(c1)C(c1ccccc1)=NCC(=O)N2C`, with 2.63; and `O=C(O)c1cccc(CSc2ccccc2)c1O`, with 4.28; and `O=NN(CCF)C(=O)NCCCl`, with 0.96.
`CCCc1nnc(SC)n(N)c1=O` had a lipophilicity (logP) of 0.93.
In turn, `O=S1(=O)NC(C2CCC2)=Nc2ccc(Cl)cc21` registered a logP of 2.24.
Then `O=C(CN1CCCCC1)Nc1ccc(Cl)cc1`, with 3.34.
On to `CCOC(=O)CCCCCN1C(=O)C=CC1=O`, for which the log partition coefficient (logP) came to 1.5.
In turn, `Cc1cccc(C)c1NC(=O)CN(C)C` had a lipophilicity (logP) of 0.94.
Take `O=C(CN1CCCCC1)Nc1cccc(Cl)c1`: the lipophilicity (logP) came out at 3.45.
In the case of `CC(C)Nc1ccccc1C(N)=O`, the logP was found to be 2.07.
With `CC1=Nc2ccc(F)cc2S(=O)(=O)N1`, the log partition coefficient (logP) came out at 0.62.
Compound `N#Cc1ccc2c(c1)C(c1ccccc1)=NCC(=O)N2` had a logP of 1.82.
`Cc1ccc(Cl)c(Cl)c1NC1=NCCN1` had a lipophilicity (logP) of 2.35.
Compound `Oc1ccc(C(c2ccncc2)c2ccc(O)cc2)cc1` gave a logP of 3.24.
Then `CN(Cc1ccc(C#N)cc1)N=Nc1ccc(C(=O)O)cc1`, with 3.6.
For the compound `COc1cc(CC(=O)O)ccc1OCC1CCCCC1`, the log partition coefficient (logP) came to 3.35.
On to `Cc1cccc(NC(=O)CN2CCCCC2)c1`, for which the logP was 2.97.
In the case of `COc1ccc(CN(C)N=Nc2ccc(C(=O)O)cc2)cc1`, the logP was determined as 4.43.
The value for `C=CCC1(C2=CCCC2)C(=O)NC(=O)N(C)C1=O` (configuration not stated) was 1.89; that for `CCCC(C)n1nnc2ccccc21` (configuration not stated) was 2.95.
As to `[Br-].c1ccc(CC[n+]2ccccc2)cc1`, the logP was -2.35.
For the compound `O=C1CN=C(c2ccccc2Cl)c2cc(Br)ccc2N1`, the log partition coefficient (logP) is 3.3.
As for `CON(C)C(=O)Nc1ccc(C(C)C)cc1`, the log partition coefficient (logP) came to 2.95.
The compound `NNc1ncnc2ccccc12` yielded a lipophilicity (logP) of 1.67.
The compound `Cc1cc(=O)[nH]n1-c1ccncn1` came in with a lipophilicity (logP) of 1.4.
Compound `CC(O)Cn1ccnc1[N+](=O)[O-]` (configuration not stated) returned a lipophilicity (logP) of -0.16.
`COc1cc(C)c(Cc2cnc(N)nc2N)cc1OCc1ccccc1`: the log partition coefficient (logP) came out at 2.69.
The compound `CCOP(=S)(OCC)Oc1ccc(SC)cc1Cl` displayed a logP of 4.4.
`O=[N+]([O-])c1cccc(OC2OC(CO)C(O)C(O)C2O)c1` (configuration not stated): the logP was -0.51.
`CC(C)Oc1ccccc1OC(=O)N(C)C` came in with a log partition coefficient (logP) of 2.06.
For `COc1ccccc1C(=O)NCCN`, the logP is 0.
`O=NN1CCCN(N=O)CC1`: the logP was -0.51.
With `Nc1ncc(Cc2cc(Cl)c(Cl)cc2Cl)c(N)n1`, the logP was found to be 3.79.
The value for `COc1ccc(OC2OC(CO)C(O)C(O)C2O)cc1` (configuration not stated) was -0.73; that for `O=C(NCC(O)CO)Nc1ccccc1` (configuration not stated) was 0.28; that for `N#Cc1cccc(OC(=O)CNC(=O)c2ccccc2)c1` was 2.11.
The value for `Cc1nonc1-c1ccccn1` was 2.09; that for `CNC(=O)C(CC(C)C)NC(C)=O` (configuration not stated) was 0.14; that for `CC(C)(C)NC(=O)NN` was -0.81.
`O=C1CC2OCCC3CN4CCC56c7ccccc7N1C5C2C3CC46` (configuration not stated): the logP came out at 1.62.
Consider `Oc1cc(Cl)c(NC2=NCCN2)c(Cl)c1`, for which the logP was 1.52.
Take `CN(C)c1ccc(Cc2cnc(N)nc2N)cc1`: the lipophilicity (logP) turned out to be 1.82.
Compound `CC(=O)C(C#N)=NNc1ccc(SC(F)(F)F)cc1` returned a logP of 5.04.
Consider `CSc1ccc2c(c1)C(c1ccccc1)=NCC(=O)N2`, for which the log partition coefficient (logP) was 2.92.
The value for `CS(=O)(=O)NN=Cc1ccccc1` was 1.2; that for `CS(=O)(=O)N(c1ccccc1)S(C)(=O)=O` was 0.62; that for `COC1C(Cl)C(Cl)C(Cl)C(Cl)C1OC` (configuration not stated) was 2.82.
`O=S(=O)(Nc1ccc(Cl)cc1)C(F)(F)F` showed a lipophilicity (logP) of 3.96.
Regarding `OCC1OC(SCCc2ccccc2)C(O)C(O)C1O` (configuration not stated), the logP is -0.1.
The compound `C#CC(C=CCl)(CC)OC(N)=O` (configuration not stated) came in with a logP of 1.71.
In turn, `O=C(O)c1ccccc1NCCO` yielded a logP of 1.35.
The value for `Cc1cc(-n2c(=O)cc(C)n2C)nc(C)n1` was 0.24.
`CCOC(=O)N(C)SN(C)C(=O)ON=C(C)SC` gave a lipophilicity (logP) of 1.9.
In the case of `Nc1nc(N)nc(-c2cc(Cl)ccc2F)n1`, the lipophilicity (logP) came out at 1.81.
`CCC(CC)(OC)C(=O)NC(N)=O` returned a logP of 0.96.
Then `CCOC(=O)C(=Cc1ccccc1OC)C(=O)OCC`, with 3.29; and `Nc1ccc(I)cc1C(=O)O`, with 2.06; and `CCC(C)C(NC(C)=O)C(N)=O` (configuration not stated), with -0.03.
`CC1=C(C(=O)O)N2C(=O)C(NC(=O)Cc3cccs3)C2SC1` (configuration not stated) gave a logP of 0.61.
Regarding `Cc1cc(C)cc(OC(=O)CNC(=O)c2ccccc2)c1`, the log partition coefficient (logP) worked out at 3.4.
`O=[N+]([O-])c1nccnc1NCC(O)CO` (configuration not stated) returned a logP of -0.49.
The value for `CNP(=O)(OC)Oc1ccc(Cl)cc1` (configuration not stated) was 1.85.
The value for `NNC(=O)c1cccc(N)c1` was -0.86; that for `COc1cc(C)c(Cc2cnc(N)nc2N)cc1OC` was 1.23; that for `O=S1(=O)N=C(Cc2ccccc2)Nc2ccccc21` was 1.89.
Take `Nc1nc(N)nc(-c2c(Cl)cccc2Cl)n1`: the log partition coefficient (logP) worked out at 1.38.
With `Clc1nc2c(Cl)c(Cl)c(Cl)c(Cl)c2[nH]1`, the lipophilicity (logP) was 4.53.
Turning to `Nc1ccc(OC(=O)CNC(=O)c2ccccc2)cc1`, the lipophilicity (logP) is 1.01.
`CC(=O)C(C#N)=NNc1ccc([N+](=O)[O-])cc1[N+](=O)[O-]` came in with a logP of 3.4.
In turn, `Oc1ccc(C(c2ccc(O)cc2)c2nccs2)cc1` returned a log partition coefficient (logP) of 2.96.
The value for `CN1C(=O)OC(c2ccccc2)C1=O` (configuration not stated) was 1.06.
The value for `OC1C(Cl)C(Cl)C(Cl)C(Cl)C1Cl` (configuration not stated) was 2.54; that for `Cc1[nH]c(=O)n(OC(C)C)c(=O)c1Br` was 0.45.
Regarding `CCC(=O)Cn1ccnc1C=Cc1occc1[N+](=O)[O-]`, the logP was determined as 1.27.
Compound `CCCCCCCCCCCCS(=O)(=O)[O-].[Na+]` registered a logP of 0.96.
Take `CC1(C)SC2C(NC(=O)C(O)c3ccccc3)C(=O)N2C1C(=O)O` (configuration not stated): the logP was 1.4.

(Values after the OPERA property sets (Mansouri et al. 2018).)
